Experiments:
SRC-3 = molecular target: T1, SRC-3 (Homo sapiens, UniProt Q9Y6Q9); test: Gal4 luciferase reporter assay (pBIND-SRC-3 + pG5-LUC) in HeLa cells; assay type: cell-based
T1 construct: expressed in transfected cells; host or cells: HeLa
Description: (§1) The constructs expressing the Gal4 responsive luciferase reporter (pG5-luc), Gal4 DBD fusion with SRC-1, […] (pBIND-SRC-1/-2/-3), MMP2 or MMP13 promoter driven luciferase reporter (MMP2-luc, MMP13-luc) were prepared. Twenty-four hours before transfection, HeLa cells were plated in 24-well dishes. The indicated expression plasmids were transfected into cells using Lipofectamine 2000 according to the manufacturer's instructions.
(§2) After various compound treatments, cells were lysed in luciferase lysis buffer and assayed for luciferase activity using the ONE-Glo luciferase assay system (Promega, Madison, Wis.). All luciferase activities were normalized to protein concentration determined by Bradford assay (Bio-Rad, Hercules, Calif.).
HeLa cells were transfected with a Gal4 responsive luciferase reporter (pG5-luc) and a construct encoding SRC-1, SRC-2 or SRC-3 fused with the DNA binding domain of Gal4 (pBIND-SRC-1, pBIND-SRC-2 or pBIND-SRC-3) were treated with the indicated compounds.

[1] = molecular target: T2, receptor interacting domain (RID) of SRC-3 (Homo sapiens, UniProt Q9Y6Q9); test: Fluorescence spectroscopy, intrinsic fluorescence quenching of GST SRC-3 RID; assay type: binding; details: 1.5 μM GST SRC-3 RID, excitation 278 nm; read-out: half-affecting concentration of intrinsic fluorescence quenching, SRC-3 RID
T2 construct: A total of 1.5 μM of GST SRC-3 RID, CID or bHLH was placed in a fluorescence cuvette; made in house
Description: (§3) Fluorescence spectrometric measurements were performed on a SLM 48000S fluorescence spectrophotometer (SLM-Aminco, Rochester, N.Y.) and an Agilent Cary Eclipse Fluorescence spectrophotometer (Agilent Technologies, Inc., Santa Clara, Calif.) using the GST fusion proteins of different portions of SRC-3 expressed and purified. A total of 1.5 μM of GST SRC-3 RID, CID or bHLH was placed in a fluorescence cuvette and excited by UV light at a wavelength of 278 nm with a 2 nm bandwidth and the emission spectra were recorded from 290 nm to above 500 nm with a bandwidth of 4 nm. The aliquot size of test compound was maintained below 5% of the total sample volume in order to minimize the effects of dilution.

[2] = molecular target: T3, basic helix-loop-helix (bHLH) domain of SRC-3 (Homo sapiens, UniProt Q9Y6Q9); test: Fluorescence spectroscopy, intrinsic fluorescence of GST SRC-3 bHLH; assay type: binding; details: 1.5 μM GST SRC-3 bHLH
T3 construct: MCB-613 also affected the fluorescence of the basic helix-loop-helix (bHLH) domain; made in house
Description: as §3

[3] = molecular target: T4, CBP interacting domain (CID) of SRC-3 (Homo sapiens, UniProt Q9Y6Q9); test: Fluorescence spectroscopy, intrinsic fluorescence quenching of GST SRC-3 CID; assay type: binding; details: 1.5 μM GST SRC-3 CID
T4 construct: made in house
Description: as §3

intracellular ROS levels = test: Measurement of reactive oxygen species with CM-H2DCFDA; assay type: cell-based; details: 30 minutes treatment
Description: Cells were loaded with 10 μM general ROS indicator CM-H2DCFDA in serum free DMEM for 30 minutes at 37° C. in the dark. After a 5-minute recovery in complete DMEM, cells were treated with indicated concentrations of MCB-613 for 30 minutes, then fixed and examined by fluorescence microscopy.

[4] = test system: human pediatric GBM tumor; test: Patient derived xenograft pediatric GBM model, survival; assay type: in vivo; details: treated every day for 14 days, tumor cells in mouse brainstem
Description: A tumor from a human patient was transferred directly into a mouse host (patient derived xenograft) without culturing on a plastic substrate. Tumor cells (50,000) were injected into mouse brainstems and allowed to proliferate for 14 days. Animals were treated every day with either MCB-613 (test group) or vehicle (control group) for 14 days. The animals were then housed with no further experimental manipulation. Overall survival was recorded from the experimental and control groups.

SRC-3-CBP-CARM1 complex = molecular target: T5, SRC-3-CBP-CARM1 complex (Homo sapiens, UniProt Q9Y6Q9); test: Coimmunoprecipitation of FLAG-SRC-3 with CBP and CARM1 in HeLa cells; assay type: cell-based; details: HeLa cells overexpressing FLAG-SRC-3, one hour, dose-dependent
T5 construct: expressed in transfected cells; host or cells: HeLa
Description: (§4) For Western blotting, cells were harvested and lysed in lysis buffer (50 mM Tris, pH 8.0, 150 mM NaCl, 10% glycerol, 0.5% NP40, protease and phosphatase inhibitor) and then centrifuged for 15 min at 14000 rpm at 4° C. After total cellular protein concentration was determined by Bradford analysis (Bio-Rad, Hercules, Calif.), protein lysates were loaded onto and resolved by sodium dodecyl sulfate-polyacrylamide gel electrophoresis (SDS-PAGE) and transferred to PVDF membranes (BioRad) which were blocked and incubated with indicated antibodies. For immunoprecipitation, 10 μg of plasmid encoding FLAG-SRC-3 was transfected into HeLa cells with 90% confluence in one 10 cm plate with lipofectamine 2000 (Invitrogen). Twenty-four hours after transfection, the cells were treated with MCB-613 for one hour and lysed with lysis buffer (25 mM Tris-Cl pH7.5, 150 mM NaCl, 5% glycerol, 1 mM EDTA, 1% Triton X-100, protease and phosphatase inhibitor) at 4° C. After a 30-second sonication, the lysate was cleared by centrifugation at 14000 rpm at 4° C. for 15 minutes and was incubated with anti-Flag-M2 agarose affinity gel (Sigma) for four hours. The agarose gel was washed four times with washing buffer (25 mM Tris pH 8.0, 150 mM NaCl, 1 mM EDTA, 1% Triton X-100) and resuspended with SDS loading buffer for Western blotting. […]

[5] = test system: SRC-1, SRC-2 and SRC-3 protein levels; test: Immunoblot of SRC protein levels in HeLa cells; assay type: cell-based; details: 24 hours
Description: (§5) For Western blotting, cells were harvested and lysed in lysis buffer (50 mM Tris, pH 8.0, 150 mM NaCl, 10% glycerol, 0.5% NP40, protease and phosphatase inhibitor) and then centrifuged for 15 min at 14000 rpm at 4° C. After total cellular protein concentration was determined by Bradford analysis (Bio-Rad, Hercules, Calif.), protein lysates were loaded onto and resolved by sodium dodecyl sulfate-polyacrylamide gel electrophoresis (SDS-PAGE) and transferred to PVDF membranes (BioRad) which were blocked and incubated with indicated antibodies. For immunoprecipitation, 10 μg of plasmid encoding FLAG-SRC-3 was transfected into HeLa cells with 90% confluence in one 10 cm plate with lipofectamine 2000 (Invitrogen). Twenty-four hours after transfection, the cells were treated with MCB-613 for one hour and lysed with lysis buffer (25 mM Tris-Cl pH7.5, 150 mM NaCl, 5% glycerol, 1 mM EDTA, 1% Triton X-100, protease and phosphatase inhibitor) at 4° C. After a 30-second sonication, the lysate was cleared by centrifugation at 14000 rpm at 4° C. for 15 minutes and was incubated with anti-Flag-M2 agarose affinity gel (Sigma) for four hours. The agarose gel was washed four times with washing buffer (25 mM Tris pH 8.0, 150 mM NaCl, 1 mM EDTA, 1% Triton X-100) and resuspended with SDS loading buffer for Western blotting.

Abl kinase = test: CrkL (Y207) phosphorylation as marker for Abl activation in HeLa cells; assay type: cell-based; details: 1 hour and 4 hours
Description: as §4

HeLa cells = test: Western blot of stress, UPR, autophagy and apoptosis markers in HeLa cells; assay type: cell-based
Description: as §5

SRC-1 = SRC-1 (Homo sapiens, UniProt Q15788); test: Gal4 luciferase reporter assay (pBIND-SRC-1 + pG5-LUC) in HeLa cells; assay type: cell-based; parameters: expressed in transfected cells; host or cells: HeLa; details: 24-hour treatment, 5-8 μM, maximum over SRC-1/-2/-3
Description: as §1, §2

T1 sequence (Q9Y6Q9 whole entry, the tested form may be a part): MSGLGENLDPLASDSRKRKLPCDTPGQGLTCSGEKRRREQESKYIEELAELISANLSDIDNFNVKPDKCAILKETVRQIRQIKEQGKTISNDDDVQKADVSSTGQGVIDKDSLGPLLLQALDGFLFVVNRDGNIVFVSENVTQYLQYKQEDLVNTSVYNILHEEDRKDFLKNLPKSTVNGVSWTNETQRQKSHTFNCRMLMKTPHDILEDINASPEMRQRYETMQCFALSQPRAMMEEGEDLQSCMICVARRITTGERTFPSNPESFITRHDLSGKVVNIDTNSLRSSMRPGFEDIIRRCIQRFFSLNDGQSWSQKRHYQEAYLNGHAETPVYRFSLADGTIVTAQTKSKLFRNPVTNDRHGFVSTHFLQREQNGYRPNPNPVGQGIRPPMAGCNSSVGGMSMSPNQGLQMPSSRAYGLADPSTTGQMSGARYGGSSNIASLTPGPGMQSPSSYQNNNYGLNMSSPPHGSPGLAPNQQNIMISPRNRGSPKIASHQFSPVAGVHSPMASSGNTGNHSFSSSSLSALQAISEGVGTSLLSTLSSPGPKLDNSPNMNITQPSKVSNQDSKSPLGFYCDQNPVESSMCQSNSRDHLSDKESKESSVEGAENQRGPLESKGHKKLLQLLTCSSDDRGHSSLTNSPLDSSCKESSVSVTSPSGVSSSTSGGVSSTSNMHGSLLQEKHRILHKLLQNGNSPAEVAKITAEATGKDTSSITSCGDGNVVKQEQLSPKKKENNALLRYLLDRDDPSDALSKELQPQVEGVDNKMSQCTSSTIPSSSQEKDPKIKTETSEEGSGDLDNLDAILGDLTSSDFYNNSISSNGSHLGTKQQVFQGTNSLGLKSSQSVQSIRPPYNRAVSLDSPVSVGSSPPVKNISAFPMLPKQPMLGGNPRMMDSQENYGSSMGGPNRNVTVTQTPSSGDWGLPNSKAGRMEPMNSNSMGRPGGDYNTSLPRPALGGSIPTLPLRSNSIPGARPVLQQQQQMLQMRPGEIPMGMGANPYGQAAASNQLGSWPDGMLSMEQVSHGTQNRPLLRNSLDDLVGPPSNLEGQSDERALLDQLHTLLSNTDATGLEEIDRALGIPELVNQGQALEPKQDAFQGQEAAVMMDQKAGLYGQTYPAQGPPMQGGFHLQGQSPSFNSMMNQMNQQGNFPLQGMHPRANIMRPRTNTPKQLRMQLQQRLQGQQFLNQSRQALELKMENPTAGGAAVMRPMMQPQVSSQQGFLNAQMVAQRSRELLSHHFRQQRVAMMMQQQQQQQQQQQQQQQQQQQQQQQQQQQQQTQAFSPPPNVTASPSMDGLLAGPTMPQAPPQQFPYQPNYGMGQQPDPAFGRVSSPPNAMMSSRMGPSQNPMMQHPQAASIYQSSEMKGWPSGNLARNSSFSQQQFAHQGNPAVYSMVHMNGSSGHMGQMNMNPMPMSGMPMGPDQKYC
T5 sequence (Q9Y6Q9 whole entry): as the sequence (Q9Y6Q9 whole entry, the tested form may be a part) above
T5 sequence (Q92793 whole entry partner): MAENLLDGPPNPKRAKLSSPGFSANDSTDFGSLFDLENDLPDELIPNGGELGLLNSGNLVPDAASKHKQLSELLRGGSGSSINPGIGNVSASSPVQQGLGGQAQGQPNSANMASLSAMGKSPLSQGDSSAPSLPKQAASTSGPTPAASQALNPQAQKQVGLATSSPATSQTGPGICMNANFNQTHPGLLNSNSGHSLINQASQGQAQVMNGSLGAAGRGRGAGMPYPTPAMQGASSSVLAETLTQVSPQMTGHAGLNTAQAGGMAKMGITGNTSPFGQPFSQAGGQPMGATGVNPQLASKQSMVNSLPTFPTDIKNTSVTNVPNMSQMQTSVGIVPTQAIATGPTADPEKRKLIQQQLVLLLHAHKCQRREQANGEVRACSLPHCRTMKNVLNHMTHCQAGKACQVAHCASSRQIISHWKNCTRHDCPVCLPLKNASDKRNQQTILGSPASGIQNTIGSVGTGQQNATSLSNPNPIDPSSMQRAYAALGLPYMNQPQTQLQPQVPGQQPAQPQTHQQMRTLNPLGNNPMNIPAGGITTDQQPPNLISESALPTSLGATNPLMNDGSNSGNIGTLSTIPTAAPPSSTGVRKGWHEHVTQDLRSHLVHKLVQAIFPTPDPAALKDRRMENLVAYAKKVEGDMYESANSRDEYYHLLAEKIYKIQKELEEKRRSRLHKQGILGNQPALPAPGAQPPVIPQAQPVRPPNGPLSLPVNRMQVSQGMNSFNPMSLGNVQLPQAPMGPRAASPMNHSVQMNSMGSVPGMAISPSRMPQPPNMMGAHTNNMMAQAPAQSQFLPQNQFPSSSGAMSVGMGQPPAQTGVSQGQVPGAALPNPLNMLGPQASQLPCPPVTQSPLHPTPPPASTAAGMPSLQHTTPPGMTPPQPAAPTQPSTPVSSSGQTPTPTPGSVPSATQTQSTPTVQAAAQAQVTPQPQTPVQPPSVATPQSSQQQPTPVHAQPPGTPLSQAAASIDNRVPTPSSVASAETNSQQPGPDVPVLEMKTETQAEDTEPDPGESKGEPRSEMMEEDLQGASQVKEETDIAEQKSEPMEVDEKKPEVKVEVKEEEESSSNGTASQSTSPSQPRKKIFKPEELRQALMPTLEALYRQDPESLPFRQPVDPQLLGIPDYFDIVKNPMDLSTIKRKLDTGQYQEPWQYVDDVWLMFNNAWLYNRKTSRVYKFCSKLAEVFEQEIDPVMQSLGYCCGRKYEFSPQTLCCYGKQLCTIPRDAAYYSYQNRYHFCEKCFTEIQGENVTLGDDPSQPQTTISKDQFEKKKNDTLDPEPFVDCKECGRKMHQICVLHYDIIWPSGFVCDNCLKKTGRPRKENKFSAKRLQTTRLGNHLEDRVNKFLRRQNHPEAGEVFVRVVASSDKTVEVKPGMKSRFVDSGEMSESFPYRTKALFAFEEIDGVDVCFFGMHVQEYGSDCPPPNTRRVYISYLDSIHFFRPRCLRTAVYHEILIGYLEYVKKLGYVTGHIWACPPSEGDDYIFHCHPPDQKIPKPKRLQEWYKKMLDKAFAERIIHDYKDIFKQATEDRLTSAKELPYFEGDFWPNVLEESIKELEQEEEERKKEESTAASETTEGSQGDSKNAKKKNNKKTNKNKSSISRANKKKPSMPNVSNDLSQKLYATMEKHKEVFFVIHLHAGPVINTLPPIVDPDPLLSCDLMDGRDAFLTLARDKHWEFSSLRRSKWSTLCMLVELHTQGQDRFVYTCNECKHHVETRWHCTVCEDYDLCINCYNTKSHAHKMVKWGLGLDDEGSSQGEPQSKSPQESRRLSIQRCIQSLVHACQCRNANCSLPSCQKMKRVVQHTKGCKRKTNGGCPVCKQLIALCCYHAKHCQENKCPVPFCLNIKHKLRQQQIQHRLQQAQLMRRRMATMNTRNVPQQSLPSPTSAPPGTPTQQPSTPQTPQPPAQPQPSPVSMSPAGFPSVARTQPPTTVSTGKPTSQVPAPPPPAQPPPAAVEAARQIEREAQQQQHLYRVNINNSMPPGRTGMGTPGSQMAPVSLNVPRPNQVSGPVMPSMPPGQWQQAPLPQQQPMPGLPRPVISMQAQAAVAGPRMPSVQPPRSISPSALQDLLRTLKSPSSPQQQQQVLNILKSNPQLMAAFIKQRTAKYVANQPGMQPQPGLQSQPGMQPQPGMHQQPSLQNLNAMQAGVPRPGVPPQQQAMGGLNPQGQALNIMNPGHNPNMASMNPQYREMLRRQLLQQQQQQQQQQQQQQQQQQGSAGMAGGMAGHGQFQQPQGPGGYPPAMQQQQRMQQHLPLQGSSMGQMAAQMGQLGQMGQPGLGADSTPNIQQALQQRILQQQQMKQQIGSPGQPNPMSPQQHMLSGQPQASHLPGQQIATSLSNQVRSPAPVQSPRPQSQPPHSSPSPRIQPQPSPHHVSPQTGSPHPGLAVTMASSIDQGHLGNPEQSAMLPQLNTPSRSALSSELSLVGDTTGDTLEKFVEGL
T5 sequence (Q86X55 whole entry partner): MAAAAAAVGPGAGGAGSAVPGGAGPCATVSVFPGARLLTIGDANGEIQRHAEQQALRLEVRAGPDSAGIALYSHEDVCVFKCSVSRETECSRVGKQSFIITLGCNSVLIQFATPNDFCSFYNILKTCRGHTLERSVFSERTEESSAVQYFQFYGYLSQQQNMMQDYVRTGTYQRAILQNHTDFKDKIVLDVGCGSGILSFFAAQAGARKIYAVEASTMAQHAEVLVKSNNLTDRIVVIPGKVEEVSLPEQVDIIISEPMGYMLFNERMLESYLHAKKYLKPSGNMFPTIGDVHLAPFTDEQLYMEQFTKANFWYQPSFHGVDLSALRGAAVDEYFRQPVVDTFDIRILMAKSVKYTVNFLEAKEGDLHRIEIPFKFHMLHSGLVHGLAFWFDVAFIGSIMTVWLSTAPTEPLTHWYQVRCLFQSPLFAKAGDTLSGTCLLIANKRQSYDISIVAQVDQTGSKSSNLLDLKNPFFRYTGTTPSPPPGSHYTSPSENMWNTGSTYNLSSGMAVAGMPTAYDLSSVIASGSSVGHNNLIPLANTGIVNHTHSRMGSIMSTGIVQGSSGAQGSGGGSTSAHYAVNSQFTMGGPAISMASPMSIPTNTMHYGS
T3 sequence (Q9Y6Q9 25-82 limits assumed): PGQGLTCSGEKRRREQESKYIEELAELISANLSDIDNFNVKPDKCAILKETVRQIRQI
T4 sequence (Q9Y6Q9 1023-1093 limits assumed): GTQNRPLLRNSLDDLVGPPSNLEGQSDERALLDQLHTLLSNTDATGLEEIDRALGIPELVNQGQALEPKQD
T2 sequence (Q9Y6Q9 582-840 limits assumed): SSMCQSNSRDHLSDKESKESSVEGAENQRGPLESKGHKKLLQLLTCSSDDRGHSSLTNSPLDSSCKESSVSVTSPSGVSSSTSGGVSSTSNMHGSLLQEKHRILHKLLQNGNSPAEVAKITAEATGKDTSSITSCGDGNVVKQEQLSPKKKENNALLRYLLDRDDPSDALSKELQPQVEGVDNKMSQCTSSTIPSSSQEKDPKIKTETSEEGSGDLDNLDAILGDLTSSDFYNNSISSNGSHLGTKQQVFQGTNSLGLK

CCC1CC(=Cc2cccnc2)C(=O)C(=Cc2cccnc2)C1 (stereo not shown) [MCB-613, 4-Ethyl-2,6-bis-pyridin-3-ylmethylene-cyclohexanone]
induction in the activity of pBIND-SRC-3 (SRC-3; 24-hour treatment, 5-8 μM, maximum over SRC-1/-2/-3): ≤ 160 fold | SRC activity after 4 hours of treatment (SRC-3; 4 hours, 6-10 μM): significant increase | EC50 [1]: 10 µM | concentration affecting the fluorescence of the bHLH domain [2]: 2 µM | concentration required to detect fluorescence quenching of the CID [3]: at least 20 μM | intracellular ROS levels (intracellular ROS levels): rapid and marked increase | overall survival [4]: extends survival time | SRC-3's interaction with CBP and CARM1 (SRC-3-CBP-CARM1 complex): increased | SRC-1, SRC-2 and SRC-3 protein levels [5]: decreases | activation of Abl (CrkL Y207 phosphorylation) (Abl kinase): activation of Abl could be observed as early as one hour | proteasome function and ER stress (polyubiquitinated proteins, UPR markers) (HeLa cells; 4-5 hours): leads to proteasome dysfunction and ER stress | autophagy and apoptosis markers (HeLa cells; 24 hours): led to the induction of LC3BII and caspase-3 cleavage | induction in the activity of pBIND-SRC-1 (SRC-1): ≤ 160 fold

Source: patent publication US11312676B2, “Small molecule stimulators of steroid receptor coactivator proteins and their use in the treatment of cancer” (BAYLOR COLLEGE OF MEDICINE, priority 2014, dated 2022)
